The conditions of series [1]: Crystal; DTA.
Series [2] is described as follows: Molar enthalpy of transition or fusion. The following applies: Crystal; DSC.

Results on 1 compound are retold here after the NIST ThermoML archive (doi:10.1016/j.fluid.2013.05.008).

Numbers after ± are expanded uncertainties.

On to `CCc1ccc(CCOc2ccc(CC3SC(=O)NC3=O)cc2)nc1.Cl` (configuration not stated), for which, in series [1], the Normal melting temperature turned out to be 195.62 ± 0.5 °C. The “Molar enthalpy of transition or fusion” value in series [2] was 12 ± 0.335 kcal/mol.
